Like-named read-outs stand apart in the source and are kept apart here. Some results are limits rather than exact numbers.

For series [1], the system named is Human poorly differentiated gastric adenocarcinoma (BGC-823). The experiment in a line: Cytotoxicity in vitro, SRB and MTT methods, 72 h. It is filed as cell-based. The note with it: BGC-823 cells, read-out: Anti-cancer Activity IC50 In vitro, BGC-823. The method, then:
(§1) Some of the above compounds are tested in vitro and in vivo for their antitumor activities. Among these tests, the cytotoxicity is tested in vitro using SRB and MTT methods for 72 h.

A further series relates to Human colon cancer HT-29. The experiment in a line: Cytotoxicity in vitro, SRB and MTT methods, 72 h. The settings on record: HT-29 cells, read-out: Anti-cancer Activity IC50 In vitro, HT-29. It is filed as cell-based. The method, then: as §1
Series [2] deals with Human ovarian cancer (A2780). Briefly: Cytotoxicity in vitro, SRB and MTT methods, 72 h. Format: cell-based. The settings on record: A2780 cells, read-out: Anti-cancer Activity IC50 In vitro, A2780. The method, then:
as §1

The next series concerns Mouse lung cancer (3LL). Briefly: Cytotoxicity in vitro, SRB and MTT methods, 72 h. Format: cell-based. The settings on record: 3LL cells, read-out: Anti-cancer Activity IC50 In vitro, 3LL. On the procedure: as §1
The test system of series [3] is transplanted tumor of human colon cancer HT-99. The experiment in a line: Efficacy on transplanted tumor of human colon cancer HT-99 on nude mice. The settings on record: compounds 60 mg/kg ip d0,1, GCT 20, ADR 4 mg/kg ip, combinations GCT or CPT-11 20 / ADR 4 ip + compound 25 mg/kg iv; for RTV (relative tumor volume) X ± SD / T/C: 17th day; for TV dn: dn = 17th day after administration. It is filed as in vivo.

The test system of another series is mouse S180 sarcoma. Briefly: Growth inhibition effect on mouse S180 sarcoma. Format: in vivo. The settings on record: mouse S180, 50 mg/kg ip; for Rate of inhibition: N = 7; for Body Weight without Tumor / Ending Body Weight / Tumor Weight / Starting Body Weight: N = 7, X ± SD; for Starting Body Weight: baseline.

Turning to “2-(4-bromophenyl)-4-(3-α-thiopyranmethyl)-thieno[2,3-d]pyridazinyl-7-formamide [XXXXVI]”, the IC50 in series [1] was 11.1 µM; in the series with Human colon cancer HT-29, above 100 µM; in series [2], 30.3 µM; in the series with Mouse lung cancer (3LL), above 100 µM.
As to `COc1cccc2c1C(=O)c1c(O)c3c(c(O)c1C2=O)C[C@@](O)(C(=O)CO)C[C@@H]3O[C@H]1C[C@H](N)[C@H](O)[C@H](C)O1` [ADR, Adriamycin], in series [3], the “RTV (relative tumor volume) X ± SD” value was found to be 4.38 ± 1.38, the T/C is recorded as 64% and the TV dn was 667 ± 67 mm^3.
In the case of `NC(=O)c1nnc(CC2CCCNC2)c2cc(-c3ccc(F)cc3)sc12` (stereo not drawn) [Compound I, 2-(4-fluorophenyl)-4-(3-piperidinemethyl)-thieno[2,3-d]pyridazinyl-7-formamide], the IC50 in series [1] (Homo sapiens, BGC-823, 72 h) was found to be 3.35 µM; in the series with Human colon cancer HT-29 (Homo sapiens, HT-29, 72 h) it was 4.22 µM; in series [2] (Homo sapiens, A2780, 72 h) it was 6.4 µM; with Mouse lung cancer (3LL) (Mus musculus, 3LL), 1.4 µM.
Turning to `NC(=O)c1nnc(CC2CCNC2)c2cc(-c3ccc(F)cc3)sc12` (stereo not drawn) [Compound XX, 2-(4-fluorophenyl)-4-(3-pyrrolidinemethyl)-thieno[2,3-d]pyridazinyl-7-formamide], in the series with mouse S180 sarcoma, the Rate of inhibition is on record as 37.23%, the “Body Weight without Tumor” value is recorded as 19.33 ± 1.60 g, the “Ending Body Weight” value was found to be 21.19 ± 1.40 g and the “Tumor Weight” value was 1.86 ± 0.26 g. The “Starting Body Weight” value in the series on mouse S180 sarcoma stood at 19.50 ± 0.89 g.
For the compound `Nc1ccn([C@@H]2O[C@H](CO)[C@@H](O)C2(F)F)c(=O)n1` [GCT, Gemcitabine], in series [3], the “RTV (relative tumor volume) X ± SD” value was determined as 1.64 ± 0.44, the T/C was 37% and the TV dn worked out at 463 ± 74 mm^3.
With `NC(=O)c1nnc(CC2CCNCC2)c2cc(-c3ccc(Cl)cc3)sc12` [XI, 2-(4-chlorophenyl)-4-(4-piperidinemethyl)-thieno[2,3-d]pyridazinyl-7-formamide], the half-maximal inhibitory concentration (IC50) in series [1] (Homo sapiens, BGC-823, 72 h) is 9.24 µM; with Human colon cancer HT-29 (Homo sapiens, HT-29, 72 h), 10.7 µM; in series [2] (Homo sapiens, A2780, 72 h), 11.8 µM; with Mouse lung cancer (3LL) (Mus musculus, 3LL) it was 8.43 µM.
On to `NC(=O)c1nnc(CC2CCCNC2)c2cc(-c3ccc(Cl)cc3)sc12` (stereo not drawn) [XIII, 2-(4-chlorophenyl)-4-(R-3-piperidinemethyl)-thieno[2,3-d]pyridazinyl-7-formamide], for which the concentration for half-maximal inhibition (IC50) is 2.62 µM in series [1] (Homo sapiens, BGC-823, 72 h); 0.73 µM in the series on Human colon cancer HT-29; 1.18 µM in series [2]; 1.24 µM with Mouse lung cancer (3LL).
Regarding `CNC(=O)c1nnc(CC2CCCNC2)c2cc(-c3ccc(Cl)cc3)sc12` (stereo not drawn) [XIV, 2-(4-chlorophenyl)-4-(3-piperidinemethyl)-thieno[2,3-d]pyridazinyl-7-N-methyl formamide], the IC50 in series [1] (Homo sapiens, BGC-823, 72 h) came out at 30.5 µM; with Human colon cancer HT-29 (Homo sapiens, HT-29, 72 h) it was 16.8 µM; in series [2] (Homo sapiens, A2780, 72 h) it was 6.01 µM; in the series with Mouse lung cancer (3LL) (Mus musculus, 3LL), 8.59 µM.
Regarding `CN(C)C(=O)c1nnc(CC2CCCNC2)c2cc(-c3ccc(Cl)cc3)sc12` (stereo not drawn) [XV, 2-(4-chlorophenyl)-4-(3-piperidinemethyl)-thieno[2,3-d]pyridazinyl-7-N,N-dimethyl formamide], in series [1] (Homo sapiens, BGC-823, 72 h), the IC50 came to 2.25 µM.
As for `NC(=O)c1nnc(CC2CCNC2)c2cc(-c3ccc(Cl)cc3)sc12` (stereo not drawn) [XXI, 2-(4-chlorophenyl)-4-(3-pyrrolidinemethyl)-thieno[2,3-d]pyridazinyl-7-formamide], the IC50 in the series on Human colon cancer HT-29 (Homo sapiens, HT-29, 72 h) came out at 8.68 µM.
For `NC(=O)c1nnc(CC2CCOC2)c2cc(-c3ccc(F)cc3)sc12` (stereo not drawn) [XXIII, 2-(4-fluorophenyl)-4-(3-tetrahydrofuranmethyl)-thieno[2,3-d]pyridazinyl-7-formamide], the half-inhibitory concentration (IC50) in series [1] (Homo sapiens, BGC-823, 72 h) was above 100 µM; in the series with Human colon cancer HT-29 (Homo sapiens, HT-29, 72 h) it was 5.57 µM; in series [2] (Homo sapiens, A2780, 72 h), above 100 µM; with Mouse lung cancer (3LL) (Mus musculus, 3LL) it was above 100 µM.
In the case of `NC(=O)c1nnc(CC2CCOC2)c2cc(-c3ccc(Cl)cc3)sc12` (stereo not drawn) [XXIV, 2-(4-chlorophenyl)-4-(3-tetrahydrofuranmethyl)-thieno[2,3-d]pyridazinyl-7-formamide], in the series with mouse S180 sarcoma, the Rate of inhibition was determined as 45.45%, the “Body Weight without Tumor” value came to 21.56 ± 1.48 g, the “Ending Body Weight” value stood at 23.18 ± 1.66 g and the “Tumor Weight” value was determined as 1.62 ± 0.26 g. In addition, the “Starting Body Weight” value with mouse S180 sarcoma worked out at 19.39 ± 0.60 g.
Take `NC(=O)c1nnc(CC2CCSC2)c2cc(-c3ccc(F)cc3)sc12` (stereo not drawn) [XXVI, 2-(4-fluorophenyl)-4-(3-tetrahydrothiophenemethyl)-thieno[2,3-d]pyridazinyl-7-formamide]: the IC50 is 24.6 µM in series [1] (Homo sapiens, BGC-823, 72 h); above 100 µM in the series with Human colon cancer HT-29 (Homo sapiens, HT-29, 72 h); above 100 µM in series [2] (Homo sapiens, A2780, 72 h); above 100 µM in the series on Mouse lung cancer (3LL) (Mus musculus, 3LL).
Consider `CNC(=O)c1nnc(CC2CCSC2)c2cc(-c3ccc(Cl)cc3)sc12` (stereo not drawn) [XXXIV, 2-(4-chlorophenyl)-4-(3-tetrahydrothiophenemethyl)-thieno[2,3-d]pyridazinyl-7-N-methyl formamide], for which the IC50 in series [1] (Homo sapiens, BGC-823, 72 h) is 74.5 µM; in the series with Human colon cancer HT-29 (Homo sapiens, HT-29, 72 h), above 100 µM; in series [2] (Homo sapiens, A2780, 72 h), above 100 µM; in the series with Mouse lung cancer (3LL) (Mus musculus, 3LL) it was 50.6 µM.
`NC(=O)c1nnc(Cc2cccnc2)c2cc(-c3ccc(F)cc3)sc12` [XXXVIII, 2-(4-fluorophenyl)-4-(3-pyridinemethyl)-thieno[2,3-d]pyridazinyl-7-formamide]: the IC50 in series [1] (Homo sapiens, BGC-823, 72 h) was found to be 8.17 µM; in the series with Human colon cancer HT-29 (Homo sapiens, HT-29, 72 h) it was 1.33 µM; in series [2] (Homo sapiens, A2780, 72 h), 3.13 µM; in the series with Mouse lung cancer (3LL) (Mus musculus, 3LL) it was 3.13 µM.
As for `NC(=O)c1nnc(Cc2ccoc2)c2cc(-c3ccc(F)cc3)sc12` [XXXXXVIII, 2-(4-fluorophenyl)-4-(3-furanmethyl)-thieno[2,3-d]pyridazinyl-7-formamide], the IC50 in series [1] (Homo sapiens, BGC-823, 72 h) came to 16.4 µM; in the series on Human colon cancer HT-29 (Homo sapiens, HT-29, 72 h), 21.8 µM; in series [2] (Homo sapiens, A2780, 72 h), 13.9 µM; with Mouse lung cancer (3LL) (Mus musculus, 3LL) it was 21.4 µM.
With `CNC(=O)c1nnc(Cc2ccoc2)c2cc(-c3ccc(Cl)cc3)sc12` [XXXXXXIX, 2-(4-chlorophenyl)-4-(3-furanmethyl)-thieno[2,3-d]pyridazinyl-7-N-methyl formamide], the IC50 in series [1] (Homo sapiens, BGC-823, 72 h) came to 17 µM; with Human colon cancer HT-29 (Homo sapiens, HT-29, 72 h), 9.48 µM; in series [2] (Homo sapiens, A2780, 72 h), 7.11 µM; in the series with Mouse lung cancer (3LL) (Mus musculus, 3LL), 3.31 µM.
`CN(C)C(=O)c1nnc(Cc2ccoc2)c2cc(-c3ccc(Cl)cc3)sc12` [XXXXXXX, 2-(4-chlorophenyl)-4-(3-furanmethyl)-thieno[2,3-d]pyridazinyl-7-N,N-dimethyl formamide]: the IC50 was 5.45 µM in series [1] (Homo sapiens, BGC-823, 72 h); above 100 µM with Human colon cancer HT-29 (Homo sapiens, HT-29, 72 h); above 100 µM in series [2] (Homo sapiens, A2780, 72 h); above 100 µM in the series with Mouse lung cancer (3LL) (Mus musculus, 3LL).

Values taken from US8962626B2, “Thienopyridazine compounds, their preparations, pharmaceutical compositions and uses” (Zhejiang Medicine Co., Ltd. Xinchang Pharmaceutical Factory, priority 2008, dated 2015).
